According to PubChem BioAssay AID1259407 (Chemical Carcinogenesis Research Information System (CCRIS), 2018):
Active and inactive are the calls of the source. No rule for the calls is given here.

System: CCRIS mutagenicity, Ames/micronucleus/aberration tests
Assay: CCRIS mutagenicity studies

For CCCCOCCOCCSC#N, the mutagenic call (Test System: AMES SALMONELLA TYPHIMURIUM, Strain/Indicator: TA97, Metabolic Activation: HAMSTER, LIVER, S-9, AROCLOR 1254 (10%), Method: PREINCUBATION) was “inactive; negative”, the mutagenic call (Test System: AMES SALMONELLA TYPHIMURIUM, Strain/Indicator: TA97, Metabolic Activation: HAMSTER, LIVER, S-9, AROCLOR 1254 (30%), Method: PREINCUBATION) was “inactive; negative” and the mutagenic call (Test System: AMES SALMONELLA TYPHIMURIUM, Strain/Indicator: TA97, Metabolic Activation: NONE, Method: PREINCUBATION) was “inactive; negative”. For the same compound, the mutagenic call (Test System: AMES SALMONELLA TYPHIMURIUM, Strain/Indicator: TA97, Metabolic Activation: RAT, LIVER, S-9, AROCLOR 1254 (10%), Method: PREINCUBATION) was “inactive; negative”, the mutagenic call (Test System: AMES SALMONELLA TYPHIMURIUM, Strain/Indicator: TA97, Metabolic Activation: RAT, LIVER, S-9, AROCLOR 1254 (30%), Method: PREINCUBATION) was “inactive; negative” and the mutagenic call (Test System: AMES SALMONELLA TYPHIMURIUM, Strain/Indicator: TA98, Metabolic Activation: HAMSTER, LIVER, S-9, AROCLOR 1254 (10%), Method: PREINCUBATION) was “inactive; negative”. For the same compound, the mutagenic call (Test System: AMES SALMONELLA TYPHIMURIUM, Strain/Indicator: TA98, Metabolic Activation: HAMSTER, LIVER, S-9, AROCLOR 1254 (30%), Method: PREINCUBATION) was “inactive; negative”, the mutagenic call (Test System: AMES SALMONELLA TYPHIMURIUM, Strain/Indicator: TA98, Metabolic Activation: NONE, Method: PREINCUBATION) was “inactive; negative” and the mutagenic call (Test System: AMES SALMONELLA TYPHIMURIUM, Strain/Indicator: TA98, Metabolic Activation: RAT, LIVER, S-9, AROCLOR 1254 (10%), Method: PREINCUBATION) was “inactive; negative”. For the same compound, the mutagenic call (Test System: AMES SALMONELLA TYPHIMURIUM, Strain/Indicator: TA98, Metabolic Activation: RAT, LIVER, S-9, AROCLOR 1254 (30%), Method: PREINCUBATION) was “inactive; negative”, the mutagenic call (Test System: AMES SALMONELLA TYPHIMURIUM, Strain/Indicator: TA100, Metabolic Activation: HAMSTER, LIVER, S-9, AROCLOR 1254 (10%), Method: PREINCUBATION) was “inactive; negative” and the mutagenic call (Test System: AMES SALMONELLA TYPHIMURIUM, Strain/Indicator: TA100, Metabolic Activation: HAMSTER, LIVER, S-9, AROCLOR 1254 (30%), Method: PREINCUBATION) was “inactive; negative”. The mutagenic call (Test System: AMES SALMONELLA TYPHIMURIUM, Strain/Indicator: TA100, Metabolic Activation: NONE, Method: PREINCUBATION) was “inactive; negative”, the mutagenic call (Test System: AMES SALMONELLA TYPHIMURIUM, Strain/Indicator: TA100, Metabolic Activation: RAT, LIVER, S-9, AROCLOR 1254 (10%), Method: PREINCUBATION) was “inactive; negative” and the mutagenic call (Test System: AMES SALMONELLA TYPHIMURIUM, Strain/Indicator: TA100, Metabolic Activation: RAT, LIVER, S-9, AROCLOR 1254 (30%), Method: PREINCUBATION) was “inactive; negative”. The mutagenic call (Test System: AMES SALMONELLA TYPHIMURIUM, Strain/Indicator: TA1535, Metabolic Activation: HAMSTER, LIVER, S-9, AROCLOR 1254 (10%), Method: PREINCUBATION) was “inactive; negative”, the mutagenic call (Test System: AMES SALMONELLA TYPHIMURIUM, Strain/Indicator: TA1535, Metabolic Activation: HAMSTER, LIVER, S-9, AROCLOR 1254 (30%), Method: PREINCUBATION) was “inactive; negative” and the mutagenic call (Test System: AMES SALMONELLA TYPHIMURIUM, Strain/Indicator: TA1535, Metabolic Activation: NONE, Method: PREINCUBATION) was “inactive; negative”. For the same compound, the mutagenic call (Test System: AMES SALMONELLA TYPHIMURIUM, Strain/Indicator: TA1535, Metabolic Activation: RAT, LIVER, S-9, AROCLOR 1254 (10%), Method: PREINCUBATION) was “inactive; negative”, the mutagenic call (Test System: AMES SALMONELLA TYPHIMURIUM, Strain/Indicator: TA1535, Metabolic Activation: RAT, LIVER, S-9, AROCLOR 1254 (30%), Method: PREINCUBATION) was “inactive; negative” and the mutagenic call (Test System: AMES SALMONELLA TYPHIMURIUM, Strain/Indicator: TA1537, Metabolic Activation: HAMSTER, LIVER, S-9, AROCLOR 1254 (30%), Method: PREINCUBATION) was “inactive; negative”. For the same compound, the mutagenic call (Test System: AMES SALMONELLA TYPHIMURIUM, Strain/Indicator: TA1537, Metabolic Activation: NONE, Method: PREINCUBATION) was “inactive; negative” and the mutagenic call (Test System: AMES SALMONELLA TYPHIMURIUM, Strain/Indicator: TA1537, Metabolic Activation: RAT, LIVER, S-9, AROCLOR 1254 (30%), Method: PREINCUBATION) was “inactive; negative”.
With O/N=C/c1ccncc1 the mutagenic call (Test System: AMES SALMONELLA TYPHIMURIUM, Strain/Indicator: TA102, Metabolic Activation: RAT, LIVER, S-9, PHENOBARBITAL AND 5,6-BENZOFLAVONE, Method: STANDARD PLATE) was “inactive; negative”, the mutagenic call (Test System: AMES SALMONELLA TYPHIMURIUM, Strain/Indicator: TA2638, Metabolic Activation: RAT, LIVER, S-9, PHENOBARBITAL AND 5,6-BENZOFLAVONE, Method: STANDARD PLATE) was “inactive; negative” and the mutagenic call (Test System: E. COLI, Strain/Indicator: WP2 (PKM101), Metabolic Activation: RAT, LIVER, S-9, PHENOBARBITAL AND 5,6-BENZOFLAVONE, Method: STANDARD PLATE) was “inactive; negative”. The mutagenic call (Test System: E. COLI, Strain/Indicator: WP2 UVRA (PKM101), Metabolic Activation: RAT, LIVER, S-9, PHENOBARBITAL AND 5,6-BENZOFLAVONE, Method: STANDARD PLATE) was “active; positive”.
